Molecules are shown by their SMILES.

The values below come from patent publication US10597388B2, “Pyridazinone herbicides” (FMC CORPORATION, priority 2014, dated 2020).

What all share (format): in vivo
The test system of assay [1] is crabgrass, large (large crabgrass, Digitaria sanguinalis). Put plainly: Test C greenhouse herbicide test, pre- and postemergence. The note with it: Preemergence; for Plant response rating, Crabgrass, Large: scale 0 to 100, 0 is no effect, 100 is complete control. The text has this: (§1) Seeds of plant species selected from blackgrass (Alopecurus myosuroides), ryegrass, Italian (Italian ryegrass, Lolium multiflorum), wheat (winter wheat, Triticum aestivum), galium (catchweed bedstraw, Galium aparine), corn (Zea mays), large crabgrass, large (large crabgrass, Digitaria sanguinalis), foxtail, giant (giant foxtail, Setaria faberii), johnsongrass (Sorghum halepense), lambsquarters (Chenopodium album), morningglory (Ipomoea coccinea), nutsedge, yellow (yellow nutsedge, Cyperus esculentus), pigweed (Amaranthus retroflexus), ragweed (common ragweed, Ambrosia elatior), soybean (Glycine max), barnyardgrass (Echinochloa crus-galli), oilseed rape (Brassica napus), waterhemp (common waterhemp, Amaranthus rudis), and velvetleaf (Abutilon theophrasti) were planted into a blend of loam soil and sand and treated preemergence with test chemicals formulated in a non-phytotoxic solvent mixture which included a surfactant.
(§2) At the same time, plants selected from these crop and weed species and also chickweed (common chickweed, Stellaria media), kochia (Kochia scoparia), and oat, wild (wild oat, Avena fatua), were planted in pots containing Redi-Earth® planting medium (Scotts Company, 14111 Scottslawn Road, Marysville, Ohio 43041) comprising spaghnum peat moss, vermiculite, wetting agent and starter nutrients and treated with postemergence applications of test chemicals formulated in the same manner. Plants ranged in height from 2 to 18 cm (1- to 4-leaf stage) for postemergence treatments. Treated plants and controls were maintained in a greenhouse for 13 to 15 d, after which time all species were compared to controls and visually evaluated. Plant response ratings, summarized in Table C, are based on a scale of 0 to 100 where 0 is no effect and 100 is complete control. A dash (-) response means no test result.

The test system of assay [2] is wheat (winter wheat, Triticum aestivum). The description is as above. To be noted: Preemergence; for Plant response rating, Wheat: scale 0 to 100, 0 is no effect, 100 is complete control.
Excerpt: as §1, §2

Assay [3] concerns ryegrass, Italian (Italian ryegrass, Lolium multiflorum). The description is as above. To be noted: Preemergence; for Plant response rating, Ryegrass, Italian: scale 0 to 100, 0 is no effect, 100 is complete control.
Excerpt: as §1, §2

Assay [4] has as its system lambsquarters (Chenopodium album). The assay is described as above. To be noted: Preemergence; for Plant response rating, Lambsquarters: scale 0 to 100, 0 is no effect, 100 is complete control.
Excerpt: as §1, §2

Assay [5] relates to morningglory (Ipomoea coccinea). The description is as above. The note with it: Preemergence; for Plant response rating, Morningglory: scale 0 to 100, 0 is no effect, 100 is complete control.
Excerpt: as §1, §2

For assay [6], the system named is barnyardgrass (Echinochloa crus-galli). Described as above. The note with it: Preemergence; for Plant response rating, Barnyardgrass: scale 0 to 100, 0 is no effect, 100 is complete control.
Excerpt: as §1, §2

Assay [7] relates to ragweed (common ragweed, Ambrosia elatior). The assay is described as above. The note with it: Preemergence; for Plant response rating, Ragweed: scale 0 to 100, 0 is no effect, 100 is complete control.
Excerpt: as §1, §2

Assay [8] has as its system galium (catchweed bedstraw, Galium aparine). The assay is described as above. The note with it: Preemergence; for Plant response rating, Galium: scale 0 to 100, 0 is no effect, 100 is complete control.
Excerpt: as §1, §2

In assay [9] the test system is johnsongrass (Sorghum halepense). Described as above. The note with it: Preemergence; for Plant response rating, Johnsongrass: scale 0 to 100, 0 is no effect, 100 is complete control.
Excerpt: as §1, §2

The test system of assay [10] is oilseed rape (Brassica napus). The description is as above. The note with it: Preemergence; for Plant response rating, Oilseed Rape: scale 0 to 100, 0 is no effect, 100 is complete control.
Excerpt: as §1, §2

Assay [11] relates to blackgrass (Alopecurus myosuroides). As to the kind of experiment: Test A greenhouse herbicide test, postemergence. To be noted: for pest or weed control at 125 g/ha / pest or weed control at 500 g/ha: Alopecurus myosuroides, post-emergence, 240 h; for pest or weed control at 125 g/ha: read-out: Plant response rating, Blackgrass; for pest or weed control at 500 g/ha: 0 to 100 scale, 0 is no effect, 100 is complete control, read-out: Blackgrass plant response rating. The method, boiled down: (§3)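 Pot-grown plants (loam soil/sand blend), 2–10 cm tall at the one- to two-leaf stage, received postemergence sprays of formulated test chemical. After about 10 d in the greenhouse, injury was rated visually against untreated controls on a 0 (no effect) to 100 (complete control) scale.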

In assay [12] the test system is galium (catchweed bedstraw, Galium aparine). As to the kind of experiment: Test A greenhouse herbicide test, postemergence. To be noted: for pest or weed control at 125 g/ha / pest or weed control at 500 g/ha: Galium, post-emergence, 240 h; for pest or weed control at 125 g/ha: read-out: Plant response rating, Galium; for pest or weed control at 500 g/ha: 0 to 100 scale, 0 is no effect, 100 is complete control, read-out: Galium plant response rating. The method, boiled down:
as §3

[13] abbreviates: 250 g ai/ha, scale 0 to 100, 0 no effect, 100 complete control.
The mark [14] stands for this setting: 125 g ai/ha, 0 to 100 scale where 0 is no effect and 100 is complete control.
The mark [15] stands for this setting: 500 g ai/ha, visual rating after approx. 10 d, 0 to 100 scale (0 no effect, 100 complete control).
Where [16] appears, read: 125 g ai/ha, visual rating after approx. 10 d, 0 to 100 scale (0 no effect, 100 complete control).

In the case of `CC(=O)Oc1c(Cl)nn(C)c(=O)c1-c1c(C)sc2ccc(Cl)cc12` [Compound 116], the entries for the “Plant response rating, Crabgrass, Large” value in assay [1] (31 g ai/ha), in assay [1] (62 g ai/ha) and in assay [1] (125 g ai/ha) were 0, 20 and 50, respectively. For the same compound, the “Crabgrass, Large plant response rating” value in assay [1] (setting [13]) amounted to 90. In addition, the “Plant response rating, Wheat” value is 0 in [2] (31 g ai/ha), 0 in assay [2] (62 g ai/ha) and 5 in [2] (125 g ai/ha). Further, in assay [2] (setting [13]), the “Wheat plant response rating” value is recorded as 15. Also, the “Plant response rating, Ryegrass, Italian” value in assay [3] (31 g ai/ha) is given as 5; in assay [3] (62 g ai/ha) it was 30; in [3] (125 g ai/ha), 70. In addition, the “Ryegrass, Italian plant response rating” value in assay [3] (setting [13]) is listed as 90. Besides, the “Plant response rating, Lambsquarters” value was found to be 65 in [4] (31 g ai/ha), 98 in assay [4] (62 g ai/ha) and 90 in assay [4] (125 g ai/ha). Also, the “Lambsquarters plant response rating” value in assay [4] (setting [13]) turned out to be 95. Besides, the results for the “Plant response rating, Morningglory” value in assay [5] (31 g ai/ha), in assay [5] (62 g ai/ha) and in [5] (125 g ai/ha) were 55, 80 and 85, respectively. Besides, in assay [5] (setting [13]), the “Morningglory plant response rating” value was determined as 98. The “Plant response rating, Barnyardgrass” value in assay [6] (31 g ai/ha) stood at 5; in [6] (62 g ai/ha) it was 30; in [6] (125 g ai/ha), 70. Further, the “Barnyardgrass plant response rating” value in assay [6] (setting [13]) is reported as 95. The “Plant response rating, Ragweed” value in [7] (31 g ai/ha) was determined as 85; in assay [7] (62 g ai/ha) it was 90; in assay [7] (125 g ai/ha), 95. The “Ragweed plant response rating” value in assay [7] (setting [13]) came to 100. Further, the “Plant response rating, Galium” value amounted to 60 in assay [8] (31 g ai/ha); 85 in assay [8] (62 g ai/ha); 100 in assay [8] (125 g ai/ha); 70 in assay [12] (setting [14]); 100 in assay [12] (setting [15]). For the same compound, the “Galium plant response rating” value in assay [8] (setting [13]) came to 100. Further, the “Plant response rating, Johnsongrass” value in [9] (31 g ai/ha), in assay [9] (62 g ai/ha) and in assay [9] (125 g ai/ha) was 0 throughout. In assay [9] (setting [13]), the “Johnsongrass plant response rating” value is 10. For the same compound, the “Plant response rating, Oilseed Rape” value in assay [10] (31 g ai/ha) is recorded as 85; in assay [10] (62 g ai/ha) it was 80; in assay [10] (125 g ai/ha) it was 95. Further, the “Oilseed Rape plant response rating” value in assay [10] (setting [13]) came to 100. For the same compound, the “Plant response rating, Blackgrass” value was found to be 30 in assay [11] (setting [14]) and 70 in assay [11] (setting [15]).
Take `Cc1cc(C)c2oc(C)c(-c3c(OC(=O)C(C)(C)C)c(C)nn(C)c3=O)c2c1` [Compound 18, 1,6-dihydro-1,3-dimethyl-6-oxo-5-(2,5,7-trimethyl-3-benzofuranyl)-4-pyridazinyl 2,2-dimethylpropanoate]: the pest or weed control at 125 g/ha worked out at 0% in [11] (setting [16]) and 40% in [12] (setting [16]). The values for the pest or weed control at 500 g/ha in [11] (500 g ai/ha) and in [12] (500 g ai/ha) were 20% and 60%, respectively.
As for `Cc1ccc2oc(C)c(-c3c(OC(=O)C(C)(C)C)c(C)nn(C)c3=O)c2c1` [Compound 17, 5-(2,5-dimethyl-3-benzofuranyl)-1,6-dihydro-1,3-dimethyl-6-oxo-4-pyridazinyl 2,2-dimethylpropanoate], the pest or weed control at 125 g/ha is 10% in [11] (setting [16]) and 50% in [12] (setting [16]). The pest or weed control at 500 g/ha in [11] (500 g ai/ha) worked out at 40%; in assay [12] (500 g ai/ha), 60%.
